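These data come from cells grown in 96-well plates and exposed to compound for 48 hours at five concentrations. The concentration for 50% growth inhibition is given as GI50.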 The source made the active and inactive calls. Rule as the data show it: active = GI50 up to about 1.1 µM and inactive = higher.
How the values were obtained:
Experiment in all cases: NCI anticancer screen, dose series, 48 h
KM-20L2 = tested on: KM-20L2
XF498 = tested on: XF498
SNB-78 = tested on: SNB-78
DMS-273 = tested on: DMS-273
M19-MEL = tested on: M19-MEL
DLD-1 = tested on: DLD-1
HOP-18 = tested on: HOP-18
RXF 631 = tested on: RXF 631
LXFL 529 = tested on: LXFL 529

SMILES	GI50 (KM-20L2)	GI50 (XF498)	GI50 (SNB-78)	GI50 (DMS-273)	GI50 (M19-MEL)	GI50 (DLD-1)	GI50 (HOP-18)	GI50 (RXF 631)	GI50 (LXFL 529)
CNc1ccc([N+](=O)[O-])c2c(NCCCN(C)C)ccnc12	> 100 µM (inactive)	> 100 µM (inactive)	7.8 µM (inactive)	> 100 µM (inactive)	> 100 µM (inactive)	–	–	–	–
CCOC(=O)c1ccc(/C(C)=N/NC(N)=S)cc1	> 100 µM (inactive)	> 100 µM (inactive)	> 100 µM (inactive)	> 100 µM (inactive)	> 100 µM (inactive)	> 100 µM (inactive)	> 100 µM (inactive)	> 100 µM (inactive)	> 100 µM (inactive)
CCCCOCN/C(N)=N/C#N	> 100 µM (inactive)	> 100 µM (inactive)	> 100 µM (inactive)	68.7 µM (inactive)	–	> 100 µM (inactive)	> 100 µM (inactive)	> 100 µM (inactive)	> 100 µM (inactive)
Cc1nn(C)c(=O)c2nn(-c3ccccc3)c(C)c12	> 100 µM (inactive)	–	> 100 µM (inactive)	> 100 µM (inactive)	> 100 µM (inactive)	> 100 µM (inactive)	> 100 µM (inactive)	–	> 100 µM (inactive)
O=C(Cc1nc2ccccc2s1)Nc1cccc(C(F)(F)F)c1	20.4 µM (inactive)	14.8 µM (inactive)	–	18.7 µM (inactive)	13 µM (inactive)	14.2 µM (inactive)	18.5 µM (inactive)	13.8 µM (inactive)	13.4 µM (inactive)
O=C(/C=C(\O)C(=O)O)/C=C(\O)c1ccccc1	> 4.65 µM (inactive)	> 100 µM (inactive)	> 100 µM (inactive)	> 4.65 µM (inactive)	> 4.65 µM (inactive)	> 4.65 µM (inactive)	1 µM (active)	–	> 4.65 µM (inactive)
O=C(CC(=O)Nc1ccccc1O)Nc1ccccc1O	22.9 µM (inactive)	–	> 100 µM (inactive)	25.9 µM (inactive)	15 µM (inactive)	12.5 µM (inactive)	19.4 µM (inactive)	9.79 µM (inactive)	8.91 µM (inactive)
c1ccc(C2N3CCCCC3[C@@H]3c4[nH]c5ccccc5c4CCN23)nc1 (stereo not given in full)	> 100 µM (inactive)	–	49.7 µM (inactive)	> 100 µM (inactive)	> 100 µM (inactive)	> 100 µM (inactive)	> 100 µM (inactive)	> 100 µM (inactive)	> 100 µM (inactive)
CCOC(=O)NC(=O)c1cn(CCCOC(=O)CCCCCCCCCCC(=O)OCCCn2cc(C(=O)NC(=O)OCC)c(=O)[nH]c2=O)c(=O)[nH]c1=O	> 100 µM (inactive)	> 100 µM (inactive)	> 100 µM (inactive)	–	> 100 µM (inactive)	> 100 µM (inactive)	> 100 µM (inactive)	37.3 µM (inactive)	> 100 µM (inactive)
COc1cc2c(c(OC)c1OC)-c1ccc(OC)c(=O)cc1[C@@H](NC(=O)c1ccccc1)CC2	< 0.01 µM (active)	< 0.01 µM (active)	< 0.01 µM (active)	< 0.01 µM (active)	< 0.01 µM (active)	< 0.0124 µM (active)	97.5 µM (inactive)	0.0115 µM (active)	< 0.01 µM (active)
O=[N+]([O-])C1Cc2ccccc2OC1c1ccccc1 (stereo not given)	> 100 µM (inactive)	–	21.4 µM (inactive)	60.4 µM (inactive)	> 100 µM (inactive)	35.3 µM (inactive)	> 100 µM (inactive)	62.2 µM (inactive)	> 100 µM (inactive)
FC(F)(F)P1C2C=CC(CC2)C1(F)F (stereo not given)	> 100 µM (inactive)	> 100 µM (inactive)	> 100 µM (inactive)	> 100 µM (inactive)	> 100 µM (inactive)	> 100 µM (inactive)	> 100 µM (inactive)	–	> 100 µM (inactive)
CCOC(=O)[C@@]12C(C)=CC(=O)O[C@]1(C)C1C(=O)NC(=O)C12 (stereo not given in full)	> 100 µM (inactive)	–	> 100 µM (inactive)	> 100 µM (inactive)	–	> 100 µM (inactive)	31.4 µM (inactive)	> 100 µM (inactive)	> 100 µM (inactive)
CC[n+]1c(/C=C/c2ccc(N(CCCl)CCCl)cc2)ccc2cc(NC(=O)/C=C/c3ccccc3)ccc21	0.483 µM (active)	0.205 µM (active)	1.51 µM (inactive)	–	0.439 µM (active)	0.628 µM (active)	2.62 µM (inactive)	–	0.357 µM (active)
O=[N+]([O-])c1ccccc1C1N2CCCCC2[C@@H]2c3[nH]c4ccccc4c3CCN12 (stereo not given in full)	12.4 µM (inactive)	16.9 µM (inactive)	15.3 µM (inactive)	10.9 µM (inactive)	6.25 µM (inactive)	14.2 µM (inactive)	36.5 µM (inactive)	13.2 µM (inactive)	10.8 µM (inactive)
CC(=O)c1ccc(NC(=O)/C(Cc2ccccn2)=N/NC(=O)C[N+](C)(C)C)cc1	> 100 µM (inactive)	–	> 100 µM (inactive)	> 100 µM (inactive)	> 100 µM (inactive)	> 100 µM (inactive)	> 100 µM (inactive)	> 100 µM (inactive)	> 100 µM (inactive)
CCCCCCCCCC1CC(=O)OC2=C1C(=O)CCC2 (stereo not given)	> 100 µM (inactive)	> 100 µM (inactive)	> 100 µM (inactive)	> 100 µM (inactive)	> 100 µM (inactive)	> 100 µM (inactive)	> 100 µM (inactive)	> 100 µM (inactive)	> 100 µM (inactive)
O=[N+]([O-])c1cccc(C(O)/C(=N/Nc2ccccc2)C2Nc3ccc([N+](=O)[O-])cc3N=C2O)c1 (stereo not given)	23.1 µM (inactive)	> 100 µM (inactive)	> 100 µM (inactive)	36.8 µM (inactive)	45.4 µM (inactive)	> 100 µM (inactive)	–	> 100 µM (inactive)	37.6 µM (inactive)
COC(=O)C(C(=O)C(=O)Nc1ccc([N+](=O)[O-])cc1)c1nc2cc(C)c(C)cc2nc1O (stereo not given)	> 100 µM (inactive)	> 100 µM (inactive)	> 100 µM (inactive)	–	> 100 µM (inactive)	> 100 µM (inactive)	> 100 µM (inactive)	–	> 100 µM (inactive)
Clc1ccc(Cc2nc3ccccc3s2)c(Cl)c1	25.6 µM (inactive)	13.6 µM (inactive)	–	18 µM (inactive)	15.7 µM (inactive)	15.3 µM (inactive)	16 µM (inactive)	16.4 µM (inactive)	16.8 µM (inactive)
COC(=O)CCC(=O)C(C#N)c1ccc(Cl)cc1Cl (stereo not given)	> 100 µM (inactive)	> 100 µM (inactive)	> 100 µM (inactive)	> 100 µM (inactive)	> 100 µM (inactive)	> 100 µM (inactive)	–	> 100 µM (inactive)	> 100 µM (inactive)
O=C1C(Br)=C(c2ccccc2)C(c2ccccc2)=C1c1ccccc1	4.78 µM (inactive)	1.81 µM (inactive)	2.12 µM (inactive)	1.79 µM (inactive)	2.17 µM (inactive)	1.82 µM (inactive)	4.9 µM (inactive)	6.49 µM (inactive)	1.5 µM (inactive)
COC(=O)C1=C(c2ccc3c(c2)OCO3)OC(c2cc(OC)c(OC)c(OC)c2)C1 (stereo not given)	1.57 µM (inactive)	14.5 µM (inactive)	10.4 µM (inactive)	1.89 µM (inactive)	4.86 µM (inactive)	3.58 µM (inactive)	16.3 µM (inactive)	–	4.79 µM (inactive)
CC(C)OP(=O)(OC(C)C)/C(N)=N/Nc1ccc([N+](=O)[O-])cc1	> 100 µM (inactive)	23.5 µM (inactive)	50.7 µM (inactive)	> 100 µM (inactive)	> 100 µM (inactive)	> 100 µM (inactive)	–	–	66.2 µM (inactive)
O=[N+]([O-])c1ccc(C2=Nc3ccccc3[S+]([O-])C(c3ccccc3)C2)cc1 (stereo not given)	23.7 µM (inactive)	21.4 µM (inactive)	–	22.6 µM (inactive)	14.6 µM (inactive)	18.6 µM (inactive)	24.9 µM (inactive)	17.1 µM (inactive)	13.5 µM (inactive)
O=C(c1ccccc1)c1ccc2cccc(O)c2n1	35.6 µM (inactive)	29.2 µM (inactive)	46.5 µM (inactive)	28.4 µM (inactive)	28.8 µM (inactive)	27 µM (inactive)	36.1 µM (inactive)	55.1 µM (inactive)	–

Reference: ChEMBL document CHEMBL1201862, “PubChem BioAssay data set” (2004)
